The test system of test [1] is fat cells in rat epididymis adipose tissue. Briefly: Antilipolytic activity: glycerol released from IL-1β-treated rat fat cells. It counts as cell-based. As to conditions: read-out: antilipolytic concentration IC50. On the procedure:
In accordance with the method of Green et al. [Endocrinology, 134, 2581-2588 (1994)], the antilipolytic activity of the compound of the present invention was evaluated by quantitating the glycerol released from fat cells in rat epididymis adipose tissue.
Thus, the rat epididymis adipose tissue was isolated, cut into pieces with a pair of scissors, and digested into fat cells by agitating in collagenase-containing phosphate buffer for 1 hour. To a culture solution containing fat cells was added 10 ng/ml of IL-1β (manufactured by Pharmingen, PM-19101V). Then, in treatment groups, solutions of compound (2) in N,N-dimethylformamide at graded concentrations were respectively added. After 24 hours, the supernatant was recovered and the glycerol therein was quantitated with an assay kit (manufactured by Sigma, 337-A). The amount of released glycerol in each group treated with compound (2) relative to that in the control group was determined to find the inhibition rate and the 50% inhibition concentration IC50 of the compound was calculated. The antilipolytic concentration IC50 value of compound (2) was 4 nM.
The antilipolytic activity of indomethacin was evaluated by the same method as in Test Example 1. The antilipolytic concentration IC50 value of indomethacin was not less than 10 mM.

For test [2], the system named is tumor-bearing mice (mouse colon cancer cell line Colon 26). Description: Weight loss inhibitory activity in tumor-bearing mice (Colon 26 cachexia model). It is filed as in vivo. As to conditions: CDF1 mice. On the procedure:
Using the mouse colon cancer cell line Colon 26 (Tanaka et al., Cancer Research, 50, 4528-4532 (1990)), which is a system known to be high in the reproducibility of cancer cachectic symptoms, the inhibitory effect of the compound of the present invention on lipolysis and body weight loss was evaluated.
Thus, 1×10^6 Colon 26 cells were transplanted sub-dermaly in 4-week-old CDF1 mice. On day 14 after transplantation, the mice were divided into groups according to tumor size. A 5% (w/v) gum arabic suspension containing compound (2) was administered orally in a dose of 1.0 mg/kg to one group of mice and, as a control, a 5% (w/v) gum arabic suspension was similarly administered to another group, once daily for 7 days in each case. An additional group of mice was not transplanted with Colon 26 cells (normal group). On days 14, 18 and 21 after transplantation, the mice were weighed. On day 22 after transplantation, each mouse was autopsied and the epididymis adipose tissue was isolated and weighed. Changes in mouse body weight and adipose tissue weight are shown in Table 1 and Table 2, respectively.

Structures are written as SMILES. Like-named read-outs stand apart in the source and are kept apart here. Bounds are passed on as bounds.

Regarding `Cc1oc(-c2ccccc2)nc1C(O)COc1ccc(CC2SC(=O)NC2=O)cc1` (centres unmarked) [compound (2), 5-[4-[2-hydroxy-2-(5-methyl-2-phenyl-4-oxazolyl)ethoxy]benzyl]-2,4-thiazolidinedione], the IC50 in test [1] (inhibition of glycerol release, 10 ng/ml IL-1β, 24 hours) is 0.004 µM. In test [2] (1.0 mg/kg orally once daily for 7 days from day 14), the “body weight of tumor-bearing mice, 21st Day after transplantation” value is listed as 25.6 g. Further, the “body weight of tumor-bearing mice, 18th Day after transplantation” value in test [2] (1.0 mg/kg orally once daily from day 14) was 26.3 g. Further, the “body weight of tumor-bearing mice, 14th Day after transplantation” value in test [2] (day 14 (grouping, start of dosing), 1.0 mg/kg orally once daily for 7 days) amounted to 26.3 g.

Turning to `COc1ccc2c(c1)c(CC(=O)O)c(C)n2C(=O)c1ccc(Cl)cc1` [indomethacin, reference compound], in test [1] (same method as Test Example 1 (glycerol release, IL-1β, 24 hours)), the IC50 was at least 10000 µM.

The values above are taken from patent US6365607B1, “Anticachectic composition” (Takeda Chemical Industries, Ltd., priority 1996, dated 2002).
